From patent publication US20220053777A1, “NON-TOXIC ANT-REPELLING GEL” (priority 2013, published 2022)

Test: Observation of polymerization (viscosity increase) of oleic acid with/without fumed silica and air
Assay type: physicochemical
Text: We can conclude that it is the addition of fumed silica to the oleic acid formula which is responsible for promoting this polymerization reaction. […] Based on chemical fundamentals we theorize that it is the fumed silica's high surface area that acts as the catalyst to increase the reaction between the oleic acid and oxygen in the air to promote oxidation, resulting in cross-linking, resulting in polymerization, resulting in an increase in viscosity and hardening. Since only some of the oleic acid molecules participate in this polymerization reaction, the rest of the oleic acid in the gel formulation is free to still act as an effective repellent.

- Polymerization (Exposure to Air: Yes): No
- increase in viscosity (polymerization) (exposed to air, temperatures normally encountered in the environment): no substantial increase in viscosity
SMILES: CCCCCCCC/C=C\CCCCCCCC(=O)O [Oleic Acid, oleic acid]
